In ChEMBL document CHEMBL1201862, “PubChem BioAssay data set” (2004):
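Five compound concentrations were applied to cells in 96-well plates for 48 hours; endpoints were derived by simple linear interpolation of the resulting dose-response curve. GI50 is the concentration that inhibits growth by half.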 Activity calls are given as the source filed them. No stated cut-off is given here; in the data, active = GI50 up to about 1.1 µM and inactive = higher.

Tests used:
Assay in all cases: NCI anticancer screen, dose series, 48 h
COLO 205 = test system: COLO 205
TK-10 = test system: TK-10
K562 = test system: K562
DU-145 = test system: DU-145
OVCAR-5 = test system: OVCAR-5
RXF 393 = test system: RXF 393
T47D = test system: T47D
SK-MEL-2 = test system: SK-MEL-2
U-251 = test system: U-251
UACC-62 = test system: UACC-62
MDA-N = test system: MDA-N
SW-620 = test system: SW-620
IGROV-1 = test system: IGROV-1
RPMI-8226 = test system: RPMI-8226
HCC 2998 = test system: HCC 2998
NCI/ADR-RES = test system: NCI/ADR-RES
A549 = test system: A549
ACHN = test system: ACHN
HT-29 = test system: HT-29

Structure (SMILES) | GI50 (COLO 205) | GI50 (TK-10) | GI50 (K562) | GI50 (DU-145) | GI50 (OVCAR-5) | GI50 (RXF 393) | GI50 (T47D) | GI50 (SK-MEL-2) | GI50 (U-251) | GI50 (UACC-62) | GI50 (MDA-N) | GI50 (SW-620) | GI50 (IGROV-1) | GI50 (RPMI-8226) | GI50 (HCC 2998) | GI50 (NCI/ADR-RES) | GI50 (A549) | GI50 (ACHN) | GI50 (HT-29)
CCCCOC(=O)C1CC[C@H]2[C@@H]3CCc4cc(OC(=O)c5cccc6c(=O)c7ccccc7[nH]c56)ccc4[C@H]3CC[C@]12C (some centres undefined) | 7.29 µM (inactive) | 7.96 µM (inactive) | 9.98 µM (inactive) | 8.17 µM (inactive) | 11.3 µM (inactive) | 9.48 µM (inactive) | 7.33 µM (inactive) | 9.91 µM (inactive) | 9.79 µM (inactive) | 6.84 µM (inactive) | 7.83 µM (inactive) | 12.4 µM (inactive) | 8.13 µM (inactive) | 9.06 µM (inactive) | 8.87 µM (inactive) | 11 µM (inactive) | 9.35 µM (inactive) | 8.69 µM (inactive) | 10.4 µM (inactive)
O=C(O)CCc1nc2c(n1-c1ccccc1)C(=O)c1ccccc1C2=O | > 100 µM (inactive) | > 100 µM (inactive) | > 100 µM (inactive) | > 100 µM (inactive) | > 100 µM (inactive) | > 100 µM (inactive) | 64.7 µM (inactive) | 95.9 µM (inactive) | > 100 µM (inactive) | > 100 µM (inactive) | > 100 µM (inactive) | > 100 µM (inactive) | > 100 µM (inactive) | > 100 µM (inactive) | > 100 µM (inactive) | > 100 µM (inactive) | > 100 µM (inactive) | > 100 µM (inactive) | > 100 µM (inactive)
Cc1cccc2c(NCCN(C)C)c3cccc(C(=O)NCCN(C)C)c3nc12 | 0.173 µM (active) | 0.445 µM (active) | 0.0278 µM (active) | 0.471 µM (active) | 1.27 µM (inactive) | 0.475 µM (active) | 1.81 µM (inactive) | 0.54 µM (active) | 0.139 µM (active) | 0.135 µM (active) | 0.265 µM (active) | 0.0276 µM (active) | 0.171 µM (active) | 0.0838 µM (active) | < 0.0455 µM (active) | 0.446 µM (active) | 0.107 µM (active) | 0.0489 µM (active) | 0.0594 µM (active)
CCOc1ccc2nc(NC(=O)/C(CC(=O)CC(C3=C(O)c4ccccc4CC3=O)c3ccccc3)=N\O)sc2c1 (centres undefined) | > 100 µM (inactive) | – | > 100 µM (inactive) | > 100 µM (inactive) | > 100 µM (inactive) | > 100 µM (inactive) | > 100 µM (inactive) | > 100 µM (inactive) | > 100 µM (inactive) | > 100 µM (inactive) | > 100 µM (inactive) | > 100 µM (inactive) | > 100 µM (inactive) | > 100 µM (inactive) | > 100 µM (inactive) | > 100 µM (inactive) | > 100 µM (inactive) | > 100 µM (inactive) | > 100 µM (inactive)
O=C1CC(c2ccc[nH]2)=NN1c1ccccc1 | > 100 µM (inactive) | > 100 µM (inactive) | 73.5 µM (inactive) | > 100 µM (inactive) | > 100 µM (inactive) | > 100 µM (inactive) | > 100 µM (inactive) | > 100 µM (inactive) | > 100 µM (inactive) | > 100 µM (inactive) | > 100 µM (inactive) | > 100 µM (inactive) | – | > 100 µM (inactive) | – | > 100 µM (inactive) | > 100 µM (inactive) | > 100 µM (inactive) | > 100 µM (inactive)
O=C1Nc2ccccc2/C1=N/Nc1ccc([N+](=O)[O-])cc1[N+](=O)[O-] | 14.5 µM (inactive) | 9.08 µM (inactive) | 32.4 µM (inactive) | 7.82 µM (inactive) | 12.6 µM (inactive) | 13.6 µM (inactive) | 15.7 µM (inactive) | – | 8.87 µM (inactive) | 20.3 µM (inactive) | 44.3 µM (inactive) | > 100 µM (inactive) | 7.94 µM (inactive) | 26.1 µM (inactive) | 11.6 µM (inactive) | 8.09 µM (inactive) | 12.5 µM (inactive) | 7.08 µM (inactive) | 19.1 µM (inactive)
CCCC(=O)N(C(=O)CCC)C1=C(Cl)C(=O)c2ccccc2C1=O | 2.91 µM (inactive) | 4.1 µM (inactive) | 2.18 µM (inactive) | 14 µM (inactive) | 7.67 µM (inactive) | 2.17 µM (inactive) | 2.33 µM (inactive) | 4.42 µM (inactive) | 4.08 µM (inactive) | 2.49 µM (inactive) | 7.45 µM (inactive) | 2.87 µM (inactive) | 5.66 µM (inactive) | – | 4.04 µM (inactive) | 3.86 µM (inactive) | 6.73 µM (inactive) | 1.28 µM (inactive) | 8.51 µM (inactive)
Cn1c2n/c(=N\c3ccc(Cl)cc3)[n+]3ccc4ccccc4c3c-2c([O-])n1-c1ccccc1 | > 100 µM (inactive) | > 100 µM (inactive) | > 100 µM (inactive) | > 100 µM (inactive) | > 100 µM (inactive) | > 100 µM (inactive) | > 100 µM (inactive) | > 100 µM (inactive) | > 100 µM (inactive) | > 100 µM (inactive) | > 100 µM (inactive) | > 100 µM (inactive) | > 100 µM (inactive) | > 100 µM (inactive) | > 100 µM (inactive) | > 100 µM (inactive) | – | > 100 µM (inactive) | > 100 µM (inactive)
CC(=O)O[C@@H]1[C@@H](C)[C@]2(CC(c3ccoc3)OC2O)C2CCC3O[C@]3(C)[C@]2(C)[C@@H]1OC(C)=O (some centres undefined) | 20.3 µM (inactive) | 47.5 µM (inactive) | – | 48.1 µM (inactive) | > 100 µM (inactive) | 35.1 µM (inactive) | 28.5 µM (inactive) | 57.4 µM (inactive) | 83 µM (inactive) | 20.4 µM (inactive) | 42.1 µM (inactive) | 36.4 µM (inactive) | 41.8 µM (inactive) | 25.9 µM (inactive) | – | 40.2 µM (inactive) | 47.3 µM (inactive) | 38 µM (inactive) | 32 µM (inactive)
NCc1ccc(O)c(O)c1 | > 100 µM (inactive) | – | > 100 µM (inactive) | > 100 µM (inactive) | > 100 µM (inactive) | > 100 µM (inactive) | > 100 µM (inactive) | > 100 µM (inactive) | > 100 µM (inactive) | > 100 µM (inactive) | > 100 µM (inactive) | > 100 µM (inactive) | 60.1 µM (inactive) | > 100 µM (inactive) | > 100 µM (inactive) | > 100 µM (inactive) | > 100 µM (inactive) | > 100 µM (inactive) | > 100 µM (inactive)
O=C(CCCCCC(=O)N1CC(CCl)c2ccc([N+](=O)[O-])cc21)N1CC(CCl)c2ccc([N+](=O)[O-])cc21 (centres undefined) | > 100 µM (inactive) | > 100 µM (inactive) | > 100 µM (inactive) | > 100 µM (inactive) | > 100 µM (inactive) | > 100 µM (inactive) | > 100 µM (inactive) | > 100 µM (inactive) | > 100 µM (inactive) | > 100 µM (inactive) | > 100 µM (inactive) | > 100 µM (inactive) | > 100 µM (inactive) | – | 23.7 µM (inactive) | > 100 µM (inactive) | – | > 100 µM (inactive) | –
C=C(C)[C@H]1CC[C@@]23O[C@@H]2[C@@H](C[C@@]2(C)CC(=O)[C@H](CC(=O)C1)O2)OC(=O)[C@@]12CC[C@H](C(=C)C)CC(=O)C[C@H]4O[C@](C)(CC4=O)C[C@@H](OC3=O)[C@@H]1O2 [SINGARDIN] | > 100 µM (inactive) | > 100 µM (inactive) | > 100 µM (inactive) | > 100 µM (inactive) | > 100 µM (inactive) | > 100 µM (inactive) | > 100 µM (inactive) | > 100 µM (inactive) | > 100 µM (inactive) | > 100 µM (inactive) | > 100 µM (inactive) | – | 52.8 µM (inactive) | > 100 µM (inactive) | > 100 µM (inactive) | > 100 µM (inactive) | > 100 µM (inactive) | > 100 µM (inactive) | > 100 µM (inactive)
CC(=O)c1sc2c(c1OC(=O)c1ccco1)c(=O)n(-c1ccccc1)c(=S)n2-c1ccccc1 | 17.4 µM (inactive) | 31.8 µM (inactive) | 30.8 µM (inactive) | 26.8 µM (inactive) | – | 12.9 µM (inactive) | 13 µM (inactive) | 10.4 µM (inactive) | 23.3 µM (inactive) | > 10 µM (inactive) | 24.8 µM (inactive) | 26.6 µM (inactive) | 23.1 µM (inactive) | 4.89 µM (inactive) | – | 18.4 µM (inactive) | 38.2 µM (inactive) | – | 6 µM (inactive)
COc1ccc(C)cc1Nc1nnc(-c2ccc(N)cc2)s1 | 80.5 µM (inactive) | – | 35.8 µM (inactive) | > 100 µM (inactive) | 68.7 µM (inactive) | 62.4 µM (inactive) | 36.1 µM (inactive) | 63.1 µM (inactive) | – | > 100 µM (inactive) | 30.4 µM (inactive) | 88.1 µM (inactive) | > 100 µM (inactive) | 31.5 µM (inactive) | 44.7 µM (inactive) | > 100 µM (inactive) | 7.53 µM (inactive) | > 100 µM (inactive) | 48.3 µM (inactive)
Cn1c2ccccc2n2c3ncccc3c(=O)cc12 | 60.4 µM (inactive) | 74.6 µM (inactive) | 78.3 µM (inactive) | 49.5 µM (inactive) | > 100 µM (inactive) | 62.8 µM (inactive) | 55.7 µM (inactive) | – | 40.4 µM (inactive) | – | 54.8 µM (inactive) | 50 µM (inactive) | 28.9 µM (inactive) | 48.1 µM (inactive) | – | 50.4 µM (inactive) | 20.2 µM (inactive) | 27 µM (inactive) | 38.9 µM (inactive)
